Data from patent US20180214395A1 (priority 2017, published 2018).
Several values for one entry are separate records, joined by “and”; a condition that tells them apart may be missing. Equal entries are not always repeated. Structures can show the parent of a compound that is named as a salt.

Key:
[1] = Locomotor activity assessment (distance traveled, rearing); type: in vivo, rat
Forced swim test = type: in vivo, rat
[2] = Female urine sniffing test (FUST); type: in vivo; conditions: rat; 24 hr after single dose; ketamine 10 mg/kg ip, d-methadone 20 mg/kg sc
[3] = Novelty-suppressed feeding test (NSFT); type: in vivo; conditions: rat, 72 hr after single dose
[4] = target: T1, serotonin transporter (SERT or 5-HT) (Rattus norvegicus, UniProt P31652)
T1 sequence (P31652 whole entry): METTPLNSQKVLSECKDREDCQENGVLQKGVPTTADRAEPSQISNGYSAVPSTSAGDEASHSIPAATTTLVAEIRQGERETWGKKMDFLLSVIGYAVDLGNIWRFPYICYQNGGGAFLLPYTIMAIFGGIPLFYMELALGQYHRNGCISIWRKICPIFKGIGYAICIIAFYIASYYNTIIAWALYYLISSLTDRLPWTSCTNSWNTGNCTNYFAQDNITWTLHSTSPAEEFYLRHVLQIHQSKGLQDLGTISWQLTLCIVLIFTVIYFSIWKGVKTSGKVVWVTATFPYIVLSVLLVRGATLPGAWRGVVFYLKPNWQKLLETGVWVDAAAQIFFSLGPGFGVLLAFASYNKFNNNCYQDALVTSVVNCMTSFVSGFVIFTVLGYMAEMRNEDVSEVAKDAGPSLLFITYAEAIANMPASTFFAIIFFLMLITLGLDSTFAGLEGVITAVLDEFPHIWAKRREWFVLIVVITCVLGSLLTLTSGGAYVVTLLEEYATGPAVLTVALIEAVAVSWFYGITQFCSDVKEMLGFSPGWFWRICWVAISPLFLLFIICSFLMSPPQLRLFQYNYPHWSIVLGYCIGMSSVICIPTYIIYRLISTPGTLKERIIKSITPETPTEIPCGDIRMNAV

[5] = target: T2, norepinephrine transporter (NET) (Rattus norvegicus, UniProt Q63380); assay: Norepinephrine uptake assay; type: biochemical; conditions: for norepinephrine uptake, % inhibition: 1.0E−05 M
T2 construct: tissue Eurofins Cerep; host or cells: rat hypothalamus synaptosomes (own knowledge of the vendor's assay)
T2 sequence (Q63380 1-617): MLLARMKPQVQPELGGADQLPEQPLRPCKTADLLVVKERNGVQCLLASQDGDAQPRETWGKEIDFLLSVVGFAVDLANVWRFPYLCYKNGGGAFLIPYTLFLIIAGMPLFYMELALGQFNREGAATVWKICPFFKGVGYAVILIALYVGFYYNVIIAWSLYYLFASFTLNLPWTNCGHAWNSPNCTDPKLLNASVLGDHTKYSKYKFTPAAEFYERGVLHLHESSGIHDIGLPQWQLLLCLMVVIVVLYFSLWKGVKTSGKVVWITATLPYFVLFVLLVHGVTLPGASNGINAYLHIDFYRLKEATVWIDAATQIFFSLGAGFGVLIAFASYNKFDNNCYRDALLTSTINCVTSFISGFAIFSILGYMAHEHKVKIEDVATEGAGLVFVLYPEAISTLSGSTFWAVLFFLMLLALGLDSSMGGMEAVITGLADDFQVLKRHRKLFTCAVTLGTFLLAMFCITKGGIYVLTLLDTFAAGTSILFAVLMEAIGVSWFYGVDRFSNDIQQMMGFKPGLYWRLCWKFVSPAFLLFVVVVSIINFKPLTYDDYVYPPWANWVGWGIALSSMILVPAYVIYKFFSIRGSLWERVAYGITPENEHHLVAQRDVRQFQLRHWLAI

[6] = target: T1, serotonin transporter (SERT or 5-HT); assay: biochemical
[7] = target: T3, PCP (antagonist radioligand) (Rattus norvegicus, UniProt P35439); assay: Binding assay PCP (antagonist radioligand); conditions: Study 2; Hill coefficient
T3 construct: PCP; rat cerebral; [^3H]TCP; tissue Eurofins Cerep; host or cells: rat cerebral cortex

[8] = mouse hot plate test; cited from earlier work
[9] = target: NMDA (antagonist radioligand); assay: Binding assay NMDA (antagonist radioligand); conditions: Study 1; reference compound
μ (MOP) (h) = μ (MOP) (h) (Homo sapiens, UniProt P35372)
Sequence of μ (MOP) (h) (P35372 whole entry): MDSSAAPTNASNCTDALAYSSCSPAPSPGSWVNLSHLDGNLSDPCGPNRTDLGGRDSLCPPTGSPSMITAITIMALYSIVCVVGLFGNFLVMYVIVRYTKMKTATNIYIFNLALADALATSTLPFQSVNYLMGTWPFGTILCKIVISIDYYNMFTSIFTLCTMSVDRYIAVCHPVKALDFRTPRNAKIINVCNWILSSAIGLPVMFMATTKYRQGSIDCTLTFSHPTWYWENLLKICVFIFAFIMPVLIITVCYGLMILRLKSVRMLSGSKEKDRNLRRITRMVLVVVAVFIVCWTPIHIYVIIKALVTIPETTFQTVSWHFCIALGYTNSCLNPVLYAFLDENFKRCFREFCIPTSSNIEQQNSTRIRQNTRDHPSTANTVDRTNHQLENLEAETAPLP

opioid receptors = conditions: cited from earlier work
[10] = 10 mg/kg, 24 hours prior to testing
[11] = rat, 24 h after dosing, one-way ANOVA
[12] = 10 mg/kg, single administration 24 hours prior, 60 counts per subject
[13] = Vehicle minus treatment, 10 mg/kg

SMILES: CNC1(c2ccccc2Cl)CCCCC1=O (centres unmarked) [ketamine, reference compound]
- Distance traveled min 1-5, Mean [1, 10]: 586.333
- Rearing min 1-5, Mean [1, 10]: 20.500
- Total Distance Traveled, Mean [1, 10]: 2464.333 cm/60 min
- Total Rearing, Mean ([1]; 10 mg/kg, 24 hours prior to testing, 60 minute test): 85.000
- Locomotor activity: total distance traveled (60 min) [1, 11]: no significant effect
- Locomotor activity: total rearing frequency (60 min) [1, 11]: no significant effect
- Climbing, Mean frequency (Forced swim test; [12]): 7.600
- Immobility, Mean frequency (Forced swim test; [12]): 34.100
- Swimming, Mean frequency (Forced swim test; [12]): 18.300
- Climbing, Mean Diff. (Fisher's PLSD) (Forced swim test; [13]): −3.822
- Immobility, Mean Diff. (Fisher's PLSD) (Forced swim test; [13]): 14.900
- Swimming, Mean Diff. (Fisher's PLSD) (Forced swim test; [13]): −11.078
- Forced swim test: frequency of immobility vs vehicle (Forced swim test; rat, 24 h after single dose, d-methadone 10, 20 and 40 mg/kg SC, ketamine 10 mg/kg IP): significantly decreased
- Forced swim test: frequency of swimming vs vehicle (Forced swim test; rat, d-methadone 10, 20 and 40 mg/kg SC, ketamine 10 mg/kg IP): significantly increased
- FUST: time sniffing water [2]: no effect
- FUST: time spent sniffing female urine vs vehicle [2]: increases
- NSFT: latency to feed in the home cage [3]: neither ketamine or methadone influenced
- NSFT: latency to eat in a novel open field ([3]; ketamine 10 mg/kg ip, d-methadone 20 mg/kg sc): significantly decreases

SMILES: [2H]C([2H])([2H])CC(=O)C(C[C@H](C)N(C([2H])([2H])[2H])C([2H])([2H])[2H])(c1ccccc1)c1ccccc1
- inhibition [4]: 90.5%
- IC50 [5]: 7200 nM
- norepinephrine uptake, % inhibition [5]: 61.4%
- IC50 [6]: 1100 nM
- nH [7]: 0.8

SMILES: C[C@H](CN1CCOCC1)C(C(=O)N1CCCC1)(c1ccccc1)c1ccccc1 [d-moramide]
- Potency, times more potent than l-moramide [8]: 700 times

SMILES: O=C(O)[C@@H]1C[C@H](CP(=O)(O)O)CCN1 [CGS 19755]
- IC50 [9]: 1300 nM
- Ki [9]: 1100 nM

SMILES: C[C@]12N[C@H](Cc3ccccc31)c1ccccc12 [MK 801]
- nH [7]: 0.9 and 1.1

SMILES: CC[C@@H](c1cccc(O)c1)[C@@H](C)CN(C)C [TapentadolHydrochloride]
- inhibition [4]: 91.1% and 87.2% and 89.1%

SMILES: C[C@@H](NC(=O)[C@@H](N)Cc1ccc(O)cc1)C(=O)NCC(=O)N(C)[C@@H](Cc1ccccc1)C(=O)NCCO [DAMGO]
- nH (μ (MOP) (h)): 0.9 and 0.8 and 0.7 and 1.0 and 0.6

SMILES: CCC(=O)C(c1ccccc1)(c1ccccc1)C(C)CN(C)C (stereo not drawn) [d-isomethadone]
- Potency, times less potent than l-isomethadone (opioid receptors): 50 times

SMILES: CC[C@@H](c1cccc(O)c1)[C@@H](C)CN(C)C [tapentadol hydrochloride, reference compound]
- inhibition [4]: 89.1%
- IC50 [5]: 260 nM
- norepinephrine uptake, % inhibition [5]: 94.1%
- IC50 [6]: 850 nM

SMILES: CCC(=O)C(CC(C)N(C)C)(c1ccccc1)c1ccccc1 (racemic) [methadone]
- NSFT: latency to feed in the home cage [3]: neither ketamine or methadone influenced
